# Data as given in patent US20140221676A1, “COMPOSITIONS AND METHODS FOR TREATING AND/OR PREVENTING CARDIOVASCULAR DISEASE” (Amarin Pharmaceuticals Ireland Limited, priority 2013, published 2014).
# Entries after “also recorded” stand apart in the source; their conditions may differ.
# Assays:
# Format in all cases: in vivo, human
# [1] = Phase 1 open-label multidose pharmacokinetic study of IPE, EPA in plasma and RBCs by LC-MS/MS
# Method: A study to characterize the pharmacokinetics of ethyl eicosapentaenoate in plasma and red blood cells after multiple-dose administration of IPE at 2 g per day and 4 g per day was performed in healthy adult male and female humans.
# The study was a phase 1, open-label, randomized, multidose study in healthy, nonsmoking men and women aged >18 and ≦55 years with a body mass index (BMI)>18 and ≦30 kg/m^2. Exclusion criteria included use within 6 weeks prior to randomization through study end of any lipid-altering medications or supplements, including statins, niacin at levels of greater than 200 mg/day, fibrates, ezetimibe, bile acid sequestrants, omega-3 fatty acid medications, and supplements or foods enriched with omega-3 fatty acids (no more than 2 servings of fish per week were permitted).
# Following a 14-day screening period, subjects entered a 28-day treatment period and were randomized to one of four IPE dose regimen treatment groups as shown in FIG. 1. Group 1 received IPE 2 g daily (1000-mg capsules; twice-daily [BID] regimen); Group 2 received IPE 4 g daily (1000-mg capsules; BID regimen); Group 3 received IPE 2 g daily (1000-mg capsules; once-daily [QD] regimen); and Group 4 received IPE 2 g daily (500-mg capsules; BID regimen). Treatment was administered orally, with or following a meal in the morning and evening for BID regimens, or in the morning only for the QD regimen. Subjects then entered an 18-day post-treatment pharmacokinetic sampling period.
# The safety population was defined as all randomized subjects who received at least one dose of study drug. […]
# Fasting EPA concentrations were measured with a validated liquid chromatography with tandem mass spectrometry (LC-MS/MS) method in plasma and RBCs prior to the morning dose (days 1, 14, 26, 28) and at serial time points (1, 3, 5, 6, 8, 10, 12, 24, 48, 72, 120, 192, 312, and 432 hours) after the morning dose on day 28. […] In RBCs, EPA was measured in the cell membrane, where EPA is mainly incorporated in phospholipids.
# For total EPA in plasma and RBCs, lipids were isolated by acid/methanol/chloroform extraction followed by centrifugation and purified by isohexane and solid-phase extraction after confirmed complete lipid hydrolysis and transmethylation (acid/methanol, 50° C. overnight). […] Quantitation utilized linolenic acid as an internal standard and EPA as the standard for the calibration curve; for total plasma EPA, RBC EPA, and unesterified EPA, the lower limits of quantitation were 10 μg/mL, 5 μg/mL, and 50 ng/mL, respectively. EPA concentrations were measured at Charles River Laboratories Ltd (Elphinstone Research Center, Tranent, Edinburgh, Scotland, UK). […]
# [2] = Safety and tolerability in the phase 1 IPE pharmacokinetic study
# Source text: The safety population was defined as all randomized subjects who received at least one dose of study drug. The per-protocol population was defined as all safety population subjects who completed the 28-day treatment period without any major protocol deviations, and who provided blood samples for EPA analyses.
# Safety assessments consisted of adverse event (AE) monitoring, clinical laboratory measurements (chemistry, hematology, and urinalysis) 12-lead electrocardiographic measurements, vital signs (systolic and diastolic blood pressure, heart rate, respiratory rate, and oral body temperature) and physical examination findings.
# [3] = tested on: inflammation-associated end points (ICAM-1, Ox-LDL, Lp-PLA2, IL-6, hsCRP); assay: MARINE study, inflammation-associated end points (ITT)
# Source text: A summary of baseline values, end-of-treatment values, and median placebo-adjusted percent change from baseline to study end of inflammation-associated end points in each of the three ITT sub-populations is shown in Table 5. […]
smiles,measurement,setting,value
"CC/C=C\C/C=C\C/C=C\C/C=C\C/C=C\CCCC(=O)OCC [IPE, ethyl eicosapentaenoate]",dose linearity of exposure (dose-normalized AUC and maximum concentration),"[1]; IPE 2 g/day vs 4 g/day (Group 1 vs Group 2), total plasma, total RBCs, unesterified EPA",Dose linearity was observed; also recorded: dose-proportional
same,effect of gender on exposure parameters,[1]; in vivo,no consistent gender effect was observed
same,comparison of exposure between QD and BID regimens,"[1]; same daily dose 2 g, Group 1 vs Group 3",similarity between QD and BID regimens
same,comparison of exposure between 500-mg and 1000-mg formulations,"[1]; same daily dose 2 g, Group 1 vs Group 4",comparable exposures at comparable doses
same,subjects reporting at least one adverse event,"[2]; Group 1, IPE 2 g daily, 1000-mg capsules BID",25.0%
same,subjects reporting at least one adverse event,"[2]; Group 2, IPE 4 g daily, 1000-mg capsules BID",33.3%
same,subjects reporting at least one adverse event,"[2]; Group 3, IPE 2 g daily, 1000-mg capsules QD",25.0%
same,subjects reporting at least one adverse event,"[2]; Group 4, IPE 2 g daily, 500-mg capsules BID",33.3%
same,"changes in laboratory, electrocardiographic, or physical examination findings",[2]; all groups,no clinically meaningful changes
same,intensity of adverse events,[2]; all groups,mild or moderate in intensity
same,subjects reporting at least one adverse event,"[2]; all groups, safety population n = 48",29.2%
same,ICAM-1 median placebo-adjusted % change from baseline,[3]; AMR101 2 g/day vs placebo,−2.3%
same,IL-6 median placebo-adjusted % change from baseline,[3]; AMR101 2 g/day vs placebo,4.7%
same,Lp-PLA2 median placebo-adjusted % change from baseline,[3]; AMR101 2 g/day vs placebo,−5.1%
same,Ox-LDL median placebo-adjusted % change from baseline,[3]; AMR101 2 g/day vs placebo,−3.0%
same,hsCRP median placebo-adjusted % change from baseline,[3]; AMR101 2 g/day vs placebo,−10.1%
same,ICAM-1 change from baseline,"[3]; AMR101 2 g/day, median",−0.4%
same,ICAM-1 end-of-treatment value,"[3]; AMR101 2 g/day, median",257.5 ng/mL
same,IL-6 change from baseline,"[3]; AMR101 2 g/day, median",3.4%
same,IL-6 end-of-treatment value,"[3]; AMR101 2 g/day, median",3.0 pg/mL
same,Lp-PLA2 change from baseline,"[3]; AMR101 2 g/day, median",−5.1%
same,Lp-PLA2 end-of-treatment value,"[3]; AMR101 2 g/day, median",220.5 ng/mL
same,Ox-LDL change from baseline,"[3]; AMR101 2 g/day, median",0.4%
same,Ox-LDL end-of-treatment value,"[3]; AMR101 2 g/day, median",75.2 U/L
same,hsCRP change from baseline,"[3]; AMR101 2 g/day, median",25.1%
same,hsCRP end-of-treatment value,"[3]; AMR101 2 g/day, median",2.4 mg/L
same,ICAM-1 median placebo-adjusted % change from baseline,[3]; AMR101 4 g/day vs placebo,−2.5%
same,IL-6 median placebo-adjusted % change from baseline,[3]; AMR101 4 g/day vs placebo,11.0%
same,Lp-PLA2 median placebo-adjusted % change from baseline,[3]; AMR101 4 g/day vs placebo,−13.6%
same,Ox-LDL median placebo-adjusted % change from baseline,[3]; AMR101 4 g/day vs placebo,−6.4%
same,hsCRP median placebo-adjusted % change from baseline,[3]; AMR101 4 g/day vs placebo,−36.0%
same,ICAM-1 change from baseline,"[3]; AMR101 4 g/day, median",−0.9%
same,ICAM-1 end-of-treatment value,"[3]; AMR101 4 g/day, median",253.0 ng/mL
same,IL-6 change from baseline,"[3]; AMR101 4 g/day, median",0.3%
same,IL-6 end-of-treatment value,"[3]; AMR101 4 g/day, median",2.4 pg/mL
